# Reference: patent US12201599B2, “Compositions and methods for inhibiting blood cancer cell growth” (University of New Brunswick, priority 2017, dated 2025)
# Columns and labels:
# KMM1 myeloma cells = assay: KMM1 myeloma cell growth inhibition, PrestoBlue cell viability assay, 48 hours; format: cell-based, human
# Procedure: Human myeloma cell line KMM1 was purchased from the Japanese Collection of Research Bioresources Cell Bank (JCBR, Japan). KMS-11 cells were a kind gift from Dr. David Hoskin's Laboratory, […], Canada. Myeloma cells were grown in RPMI-1640 media (Sigma Aldrich, USA) supplemented with 5% heat inactivated FBS (Gibco), […] L-glutamine (Gibco), 5 mM HEPES and 1% Penstrep (Sigma Aldrich, USA) in a 5% CO2 incubator at 37° C. Cell lines were tested regularly for mycoplasma and kept free of contamination. All other chemicals were obtained from Sigma Aldrich, USA. Myeloma cells were seeded in 96 well plates at a density of 10^4 cells/well in appropriate cell media. Following overnight incubation at 37° C., MM cells were treated for 48 hours with varying concentrations of CAPE and its closely related analogues and cell viability was determined by PrestoBlue assay (Invitrogen, ON) according to the manufacturer's protocol. […] Myeloma cell growth inhibition was determined by presto blue cell viability assay (FIG. 2). […] At 5 μM, GL8 inhibited 49.9±2.9%, while CAPE inhibited the growth of 7.3±1% myeloma cells only (P=0.000017); At 10 μM, GL8 inhibited 62.3±2%, while CAPE inhibited the growth of 25.6±5% (P=0.00026).
# Bob-1 = assay: Immunoblot of Bob-1 protein levels in KMM1 cells; format: cell-based, human; details: KMM1, 25 μM, 48 hours
# [1] = system: normal human bone marrow mononuclear cells; assay: Cell viability of normal mononuclear cells after 48 hr, Prestoblue cell viability assay; format: cell-based; details: for Normal Bone Marrow Mononuclear Cell Viability (%) Average: 48 hr; for inhibition of cell growth of normal human bone marrow cells (in words): 1, 10, 25, 50 μM, 48 hrs
# Description: Cell Viability of Normal Mononuclear Cells after 48 hr CAPE and GL8 Treatment, Determined by Prestoblue Cell Viability Assay.
# [2] = system: KMM1 lenalidomide non-responsive myeloma cell line; assay: Combination treatment of lenalidomide and CAPE analogues, KMM1 cell viability after 72 hr; details: Homo sapiens
# [3] = system: OCI-Ly3 human lymphoma cell line; assay: Lymphoma cell growth inhibition in lenalidomide-insensitive OCI-Ly3; format: cell-based
# OCT2 = assay: Immunoblot of OCT2 protein levels in KMM1 cells; format: cell-based, human; details: KMM1, 25 μM, 48 hours
# IRF4 [4] = assay: Immunoblot of IRF4 protein expression in KMM1 cells
# Description: (§1) Total protein extract was obtained from KMM1 and KMS-11 cells treated with CAPE and its closely related analogues and concentration of proteins determined by the Bicinchoninic acid assay (BCA) method. Protein samples were then fractionated by sodium dodecyl sulfate polyacrylamide gel electrophoresis (SDS PAGE) and transferred electrophoretically to a polyvinylidene (PVDF) membrane. Blots were then blocked with 5% nonfat dry milk in tris(hydroxymethyl)aminomethane-buffered saline-tween (TBS-T) for 1 hour and then incubated overnight with goat polyclonal anti-IRF4 antibody; rabbit polyclonal anti-OCT2 antibody, rabbit polyclonal anti-Bob1 antibody (Santa Cruz Biotechnology, Santa Cruz, CA); mouse polyclonal anti-Cyclin D3 (Cell Signaling Technology, Whitby, ON) and mouse monoclonal anti-beta tubulin antibody (Abcam, Cambridge, MA). Detection of protein in PVDF membrane was performed using the chemiluminescence kit (Bio-Rad Laboratories, Hercules, CA).
# KMM1 cells were treated with 1, 5 and 25 μM of CAPE and its closely related analogues for 48 hours, cells were then harvested and proteins were extracted. 15 μg protein lysates were separated on a 4-20% gradient gel and then transferred to the PVDF membrane. The membrane was probed for IRF4 protein expression using affinity purified goat polyclonal antibody. Beta-actin was used as protein loading control.
# Cyclin D3 = assay: Immunoblot of cyclin D3 protein levels in KMM1 cells; format: cell-based, human; details: 48 hours; for cyclin D3 protein levels in comparison with CAPE: KMM1, 25 μM; for effect on cyclin D3 levels: KMM1, 1, 5 and 25 μM
# Ikaros [5] = assay: Immunoblot of cereblon pathway protein Ikaros in KMM1 cells; format: cell-based, human; details: KMM1 (lenalidomide resistant)
# Description: as §1
# Ikaros [6] = assay: Immunoblot of Ikaros in lenalidomide-responsive KMS-11 cells; format: cell-based, human; details: KMS-11, 50 μM
# Description: as §1
# IRF4 [7] = assay: Immunoblot of IRF4 in lenalidomide-responsive KMS-11 cells; format: cell-based, human; details: KMS-11 (lenalidomide responsive)
# Description: as §1
# cleaved caspase-3 = assay: Immunoblot of cleaved caspase-3 in KMM1 cells; format: cell-based, human; details: KMM1, 25 μM, 48 hr
# Procedure: Furthermore, a noticeable increase in cleaved caspase levels in KMM1 cells treated with 25 μM GL8 and MT30 was observed. In comparison with 25 μM CAPE, a 3.2 fold increase in cleaved caspase-3 by MT30 and a 2.9 fold increase by 25 μM of GL8 were observed (FIG. 5).
# [8] = system: MM1S human myeloma cell line; assay: Cell growth inhibition effect of lenalidomide on MM1S myeloma cells; format: cell-based
# [9] = system: MMIR human myeloma cell line; assay: Cell growth inhibition effect of lenalidomide on MMIR myeloma cells; format: cell-based
# [10] = KMM-1, read-out: % KMM1 Cell viability, single compound treatment
# [11] = KMM-1, 72 h, read-out: % KMM1 Cell viability after 72 hr Lenalidomide Treatment
compound,measurement,setting,value
"O=C(/C=C/c1ccc(O)c(O)c1)OCCc1ccccc1 [CAPE, Caffeic acid (3,4-dihydroxycinnamic acid) phenethyl ester]",inhibition at 1 µM,"KMM1 myeloma cells; Homo sapiens, KMM-1, KMM1, 48 hours, 1 μM, 5 μM and 10 μM",< 30%
same,inhibition at 25 µM,"KMM1 myeloma cells; Homo sapiens, KMM-1, KMM1, 48 hours, 25 μM",38.7 ± 4%
same,inhibition at 50 µM,"KMM1 myeloma cells; Homo sapiens, KMM-1, KMM1, 48 hours, 50 μM",59.6 ± 2%
same,Bob-1 protein levels,Bob-1,downregulated
same,Normal Bone Marrow Mononuclear Cell Viability (%) Average,[1]; 1 μM,99.3%
same,Normal Bone Marrow Mononuclear Cell Viability (%) Average,[1]; 10 μM,103.4%
same,Normal Bone Marrow Mononuclear Cell Viability (%) Average,[1]; 25 μM,117.7%
same,Normal Bone Marrow Mononuclear Cell Viability (%) Average,[1]; 50 μM,122.6%
same,inhibition of cell growth of normal human bone marrow cells (in words),[1],neither GL8 nor CAPE at the following concentrations inhibited
same,viability at 5 µM,[2]; [10],51.8%
same,viability at 25 µM,[2]; [10],36%
same,inhibition at 5 µM,"[3]; Homo sapiens, OCI-Ly3, 5 μM",7.3 ± 1%
same,inhibition at 10 µM,"[3]; Homo sapiens, OCI-Ly3, 10 μM",25.6 ± 5%
same,OCT2 protein levels,OCT2,downregulated
same,decrease of IRF4 protein expression level,"IRF4 [4]; KMM1, 25 μM, 48 hours",26%
O=C(/C=C/c1ccc(O)c(O)c1)OCCCc1ccccc1 [GL8],myeloma cell growth inhibition (in words),KMM1 myeloma cells; KMM1,significant myeloma cell growth inhibition
same,myeloma cell growth inhibition,"KMM1 myeloma cells; KMM1, 48 hours, 25 μM",58.3±13%
same,myeloma cell growth inhibition,"KMM1 myeloma cells; KMM1, 48 hours, 50 μM",80±5%
same,Bob-1 protein levels,Bob-1,downregulated
same,cyclin D3 protein levels in comparison with CAPE,Cyclin D3,decreased cyclin D3 protein levels dramatically
same,effect on cyclin D3 levels,Cyclin D3,decrease cyclin D3 levels in a dose-dependent manner
same,levels of Ikaros in comparison with 50 μM CAPE,Ikaros [5],significantly decreased
same,levels of Ikaros in comparison with 50 μM CAPE,Ikaros [6],significantly decreased
same,Normal Bone Marrow Mononuclear Cell Viability (%) Average,[1]; 1 μM,110.0%
same,Normal Bone Marrow Mononuclear Cell Viability (%) Average,[1]; 10 μM,109.2%
same,Normal Bone Marrow Mononuclear Cell Viability (%) Average,[1]; 25 μM,110.3%
same,Normal Bone Marrow Mononuclear Cell Viability (%) Average,[1]; 50 μM,101.9%
same,inhibition of cell growth of normal human bone marrow cells (in words),[1],neither GL8 nor CAPE at the following concentrations inhibited
same,lymphoma cell growth inhibition,"[3]; OCI-Ly3, 5 μM",49.9±2.9%
same,lymphoma cell growth inhibition,"[3]; OCI-Ly3, 10 μM",62.3±2%
same,OCT2 protein levels,OCT2,downregulated
same,levels of IRF4 in comparison with 50 μM CAPE,"IRF4 [4]; KMM1 (lenalidomide resistant), 50 μM",significantly decreased
same,decrease of IRF4 protein expression level,"IRF4 [4]; KMM1, 25 μM, 48 hours",62%
same,levels of IRF4 in comparison with 50 μM CAPE,IRF4 [7]; 50 μM,significantly decreased
same,increase in cleaved caspase-3 in comparison with 25 μM CAPE,cleaved caspase-3,2.9 fold
Nc1cccc2c1CN(C1CCC(=O)NC1=O)C2=O (stereo not shown) [Lenalidomide],cell growth inhibition effect (sensitivity in words),KMM1 myeloma cells; KMM1,insensitive
same,cell growth inhibition effect (sensitivity in words),[8],sensitive
same,cell growth inhibition effect (sensitivity in words),[9],moderately sensitive
same,viability at 0.0001 µM,[2]; [11],99%
same,viability at 0.0005 µM,[2]; [11],97%
same,viability at 0.001 µM,[2]; [11],97%
same,viability at 0.005 µM,[2]; [11],96%
same,viability at 0.01 µM,[2]; [11],97%
same,viability at 0.1 µM,[2]; [11],85%
same,viability at 1 µM,[2]; [11],80%
same,viability at 10 µM,[2]; [11],80%
same,viability at 100 µM,[2]; [11],78%
same,cell growth inhibition effect (sensitivity in words),[3]; OCI-Ly3,insensitive
same,effect on IRF4 protein level,"IRF4 [4]; KMM1 (lenalidomide resistant), 10 μM, 25 μM and 50 μM","Neither the clinically relevant concentration of 10 μM lenalidomide (Greenberg et al., 2013) nor higher concentrations of lenalidomide (25 μM and 50 μM) tested had any effect"
same,effect on IRF4 protein level,"IRF4 [7]; 10 μM, 25 μM and 50 μM",did not alter
"O=C(O)/C=C/c1ccc(O)c(O)c1 [CA, Caffeic acid]",effect on cyclin D3 levels,Cyclin D3,did not have any effect
O=C(/C=C/c1ccc(O)c(O)c1)NCCc1ccccc1 [D19],effect on cyclin D3 levels,Cyclin D3,did not have any effect
O=C(/C=C/c1ccc(O)c(O)c1)OCCC1CCCCC1 [MT30],myeloma cell growth inhibition (in words),KMM1 myeloma cells; KMM1,significant myeloma cell growth inhibition
same,Bob-1 protein levels,Bob-1,downregulated
same,cyclin D3 protein levels in comparison with CAPE,Cyclin D3,decreased cyclin D3 protein levels dramatically
same,OCT2 protein levels,OCT2,downregulated
same,IRF4 protein expression (in words),"IRF4 [4]; KMM1, 25 μM, 48 hours",significantly down regulated
same,increase in cleaved caspase-3 in comparison with 25 μM CAPE,cleaved caspase-3,3.2 fold
